Test results from US5484940A, “Substituted 3-indolyl-5-pyrazolone compounds” (priority 1994, dated 1996).

Tests used:
293 751 SWE cells = test: Cytotoxicity (MTT) in 293 751 SWE cells; assay type: cell-based, human; settings: concentration not given
Method in brief: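 Used HEK293 cells stably expressing APP751 carrying the Swedish double mutation (K651N/M652L), plated at 1.5-2.5×10^4 cells/well in DMEM + 10% FBS. MTT was added to a final 1 mg/mL for 1 h at 37 °C, then lysed in SDS/DMF (pH 4.7) overnight. Viability was read as OD562 − OD650.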

rat cortical neurons = test: Inhibition of toxicity of β-amyloid peptide to rat neuronal cells (alamarBlue); assay type: cell-based; settings: 10 to 20 μM β-amyloid peptide, 2-3 days; on average where more than one duplicate experiment; compound concentration not stated
Protocol: The purpose of this test is to determine the effect of 3-indolyl-5-pyrazolone compounds on the toxicity of β-amyloid peptide to neuronal cells.
Primary rat cortical cultures were established from 18 day rat fetuses. Cortical tissue was dissociated by incubation in a trypsin/EDTA solution (0.05% trypsin+0.53 mM EDTA in HBSS; GIBCO Laboratories, Grand Island, N.Y., USA) for 20 minutes at 37° C. The trypsin was then inactivated by resuspending the cells in serum-containing medium (DMEM/FBS): Dulbecco's Modified Eagles' Medium (DMEM) containing 4.5 g/L glucose, 1 mM sodium pyruvate, 1 mM glutamine, 100 Units/mL penicillin, 100 μg/mL streptomycin, and supplemented with 10% heat-inactivated fetal bovine serum (GIBCO Laboratories, Grand Island, N.Y., USA). Cells were then pelleted by centrifugation and resuspended in a chemically-defined medium (DMEM/B27: DMEM containing B27 supplement; GIBCO Laboratories, Grand Island, N.Y., USA) in place of FBS. Polyethyleneimine (PEI; Sigma Chemical Company, St. Louis, Mo., USA)-coated 6.4 mm (96-well) dishes were timed once with DMEM/FBS, and then seeded at 0.75 to 1.25×10^5 cells per well in 0.1 mL DMEM/B27. Cultures were maintained in a H2 O-saturated incubator with an atmosphere of 90% air/10% CO2 at 37° C. Cell viability was visually assessed by phase contrast microscopy and quantified by measuring the reduction of alamarBlue™ (Alamar biosciences, Inc., Sacramento, Calif., USA) as described below. Serum replacement with B27 supplement yields nearly pure neuronal cultures as judged by immunocytochemistry for glial fibrillary acidic protein and neuron-specific enolase (Brewer, et al.^20)
β-amyloid peptide stock solutions were prepared as 1 mM stocks in sterile, doubly distilled water immediately prior to addition to cultures. Rat cortical neurons were exposed to β-amyloid peptide by removing the culture medium and replacing it with DMEM/N2 (GIBCO Laboratories,Grand Island, N.Y., USA) containing 10 to 20 μM β-amyloid peptide. Human cortical neurons were exposed to test compound plus β-amyloid peptide by removing the culture medium and replacing it with MEM containing 50 μM β-amyloid peptide. Cultures were maintained for 2-3 days before neuronal survival was quantified using alamarBlue™.
The alamarBlue™ assay incorporates a fluorometric/colorimetric metabolic indicator (Alamar Biosciences, Inc. Sacramento, Calif., USA). Viable cells convert alamarBlue™ from an oxidized (non-fluorescent, blue) form to a reduced (fluorescent, red) form. Assays were preformed by replacing the culture media with a 10% alamarBlue™ solution in DMEM (rat cortical cultures) or MEM (human cortical cultures).

With COc1ccc2c(c1)c(CC1=NN(c3cccc(C(F)(F)F)c3)C(=O)C1)c(C)n2C(=O)c1ccc(Cl)cc1 [Example 25, 3-[1-(4-chlorobenzoyl)-5-methoxy-2-methyl-3-indolylmethyl]-1-(3-trifluoromethylphenyl)-5-pyrazolone] the “cytotoxic effect on the 293 751 SWE cells” value (293 751 SWE cells) was “did not have a significant cytotoxic effect” and the “inhibition of the toxicity of β-amyloid peptide to rat neuronal cells” value (rat cortical neurons) was “at least 10%”.
